Measurements reported in patent US9732101B2, “Bioreversible boronates for delivery of molecules into cells” (WISCONSIN ALUMNI RESEARCH FOUNDATION, priority 2012, dated 2017).
Read-outs that look alike come from different tables or passages of the source.

Legend:
[1] = Ka of boronic acids for saccharides by 1H NMR (H2O containing 2% D2O); assay type: binding; conditions: 1H NMR in H2O containing D2O (2% v/v); 0.10M sodium phosphate buffer, pH 7.4; this work
Experimental: (§1) Methodology to determine the values of Ka for boronic acids and saccharides was adapted from work by Hall and coworkers. [13a, 13b]
(§2) A boronic acid (B) and a saccharide (S) were assumed to bind in one modality, B·S:
(§3) The [B·S]/[B] ratio was determined by the integration of aryl protons of the boronic acid.saccharide complex and the free boronic acid. The individual [B], [B·S], and [S] can be calculated from eq. 1-3.
(§4) Each value of Ka arose from at least two independent experiments with freshly prepared solutions, and each experiment consisted of a titration with 6-9 different concentrations.
(§5) All NMR spectra were analyzed with Topspin 3.0 software from Bruker AXS. NMR experiments were done in a 0.10 M NaH2PO4 buffer, pH 7.4, containing D2O (2% v/v). ^1H NMR experiments consisted of the first increment of a 2D NOSY with gradients for improved water suppression. […]
To a […] volumetric flask, Neu5Ac (1.53 g, 5.0 mmol) and ˜20 mL of solution 1 was added. […] The [B·S]/[B] ratio was determined as depicted in FIG. 17. A value for Ka was calculated for every concentration as described above.
To a […] volumetric flask, Neu5Ac (1.56 g, […]) and ˜20 mL of solution 2 was added. […] The Ka value was calculated for every concentration as previously described. The [B·S]/[B] ratio was determined as illustrated in FIGS. 18 and 19. […] A value for Ka was calculated for every concentration as described above.

[2] = 11B NMR in H2O/D2O/MeOH mixture; ref [d]; cited from earlier work
[3] = Competition with alizarin red S; 0.10M sodium phosphate buffer, pH 7.4; ref [b]; cited from earlier work
[4] = 1H NMR in D2O (100% v/v); 0.10M sodium phosphate buffer, pH 7.4; ref [c]; cited from earlier work
[5] = Competition with alizarin red S; 0.10M sodium phosphate buffer, pH 7.4; refs [b], [e]; cited from earlier work
[6] = Competition with alizarin red S; 0.10M sodium phosphate buffer, pH 7.4; ref [b]; cited from earlier work; remark: listed apart in the source
[7] = Ka of boronic acids for saccharides by 1H NMR (H2O containing 2% D2O); assay type: binding; conditions: 1H NMR in H2O containing D2O (2% v/v); 0.10M sodium phosphate buffer, pH 7.4; this work; remark: listed apart in the source
Experimental: as §1, §2, §3, §4, §5
To a 25-mL volumetric flask, D-glucose (2.25 g, 12.5 mmol) and ˜20 mL of solution 1 was added. […] The [B·S]/[B] ratio was determined as depicted in FIG. 15. A value for Ka was calculated for every concentration as described above.
To a 25-mL volumetric flask, D-glucose (2.25 g, 12.5 mmol) and ˜20 mL of solution 2 was added. […] The [B·S]/[B] ratio was determined as depicted in FIG. 16. […] A value for Ka was calculated for every concentration as described above.

[8] = 1H NMR in D2O (100% v/v); 0.10M sodium phosphate buffer, pH 7.4; ref [c]; cited from earlier work; remark: listed apart in the source
[9] = Ka of boronic acids for saccharides by 1H NMR (H2O containing 2% D2O); assay type: binding; conditions: 1H NMR in H2O containing D2O (2% v/v), 0.10M sodium phosphate buffer, pH 7.4, this work
Experimental: as §1, §2, §3, §4
All NMR spectra were analyzed with Topspin 3.0 software from Bruker AXS. NMR experiments were done in a 0.10 M NaH2PO4 buffer, pH 7.4, containing D2O (2% v/v). ^1H NMR experiments consisted of the first increment of a 2D NOSY with gradients for improved water suppression.
A. Representative Procedure for Making a Phenylboronic Acid Solution NaH2PO4 (3.0 g, 25 mmol) and PBA (phenylboronic acid, 458 mg, 3.75 mmol) were dissolved in distilled, deionized water in a volumetric flask (˜200 mL H2O, 5 mL D2O). The pH was adjusted carefully to 7.4 using 10 M NaOH, and additional water was added for a final volume of 250 mL. Final solutions were 15 mM in the boronic acid (PBA=solution 1; benzoboroxole=solution 2) in 0.10 M sodium phosphate monobasic buffer, pH 7.4, containing D2O (2% v/v).
To a 25-mL volumetric flask, D-fructose (674 mg, 3.75 mmol) and ˜20 mL of solution 1 was added. The solution was adjusted carefully to pH 7.4 by the addition of 10 M NaOH. (The volume of added NaOH was used in the calculation of the boronic acid concentration.) The volume was then increased to 25 mL by adding solution 1. […] The [B·S]/[B] ratio was determined for every concentration as follows. […]
To a 25-mL volumetric flask, D-fructose (674 mg, 3.75 mmol) and ˜20 mL of solution 2 was added. […] The [B·S]/[B] ratio was determined as depicted in FIG. 14. A value for Ka was calculated for every concentration as described above.

[10] = ref 13b; cited from earlier work

Structure (SMILES)	Ka for Neu5Ac [1] [M⁻¹]	Ka for Neu5Ac [2] [M⁻¹]	Ka for Neu5Ac [3] [M⁻¹]	Ka for D-fructose [4] [M⁻¹]	Ka for D-glucose [5] [M⁻¹]	Ka for D-fructose [6] [M⁻¹]	Ka for D-glucose [7] [M⁻¹]	Ka for D-glucose [8] [M⁻¹]	Ka for D-fructose [9] [M⁻¹]	pKa of the HOB [10]	Ka for D-fructose ([9]; listed as benzoxaborole) [M⁻¹]
OB(O)c1ccccc1 [PBA, Phenylboronic acid]	13 ± 1	11.6 ± 1.9	21	79	4.6	160	5 ± 1	0	128 ± 20		
OCc1ccccc1B(O)O [Benzoboroxole, 2-hydroxymethylphenylboronic acid]	43 ± 5			606	31		28 ± 4	17	336 ± 43	7.2	336
